Structures can show the parent of a compound that is named as a salt.
Columns and labels:
OVCAR8 tumor spheroid [1] = test: Destruction of spheroid by monochromatic X-ray irradiation; assay type: cell-based, Human; details: 30 minutes, then 3 days incubation
Protocol: Irradiation of monochromatic X-rays was performed in beamline BL14B1 of large-scale synchrotron radiation facility SPring-8 located in Sayo-cho, Sayo-gun, Hyogo Prefecture, Japan. […] First, white X-ray generated from the bending magnet of SPring-8 was guided to an exit-position fixed two-crystal monochromator having silicon 311 crystal to generate a monoenergetic X-ray beam (monochromatic X-ray). SPring-8 storage ring was operated in the top-up mode under which fluctuation of X-ray intensity over time can be ignored due to a constant storage current of 100 mA to perform an irradiation experiment. The shape of the X-ray beam was controlled by using horizontal and vertical transport channel (TC) slits. The size of the X-ray beam at the position of a sample was 0.7 mm in height×1.4 mm in width. This is large enough to cover a spheroid having a size of 0.5 mm×0.5 mm. During experiments, the intensity of the X-ray beam was monitored in two ion chambers arranged on the optical axis. The X-ray transmitted was monitored by a CCD camera to control the position of the sample. […] Spheroids are placed at the bottom of tubes put in a sample rack.
The iodine atom-containing Hoechst compound (I-Hoechst) and spheroids were incubated (24 hours) in the same manner as in Test Example 3 to obtain spheroids having the Hoechst compound taken up. The spheroids were put in tubes and the tubes were plated at the sample rack of the X-ray irradiation device. Since the sample rack is designed such that samples can be moved on the XYZ stage, the experimenter can perform X-ray irradiation by moving samples on the optical axis without entering the experimental hutch. After completion of X-ray irradiation to a sample, the sample rack is designed to automatically move such that the irradiation position faces the next sample. Thus, a series of X-ray irradiation can be automatically performed (see, FIG. 6). Before irradiation, the position of a sample was confirmed by an optical microscope and a laser, and monitored by a CCD camera during X-ray irradiation. Note that, since the energy of X-ray is extremely high, observation of spheroids and an absorption control of a tube by the CCD camera was not made. A refractive X-ray image of a tube was obtained to monitor of a sample position. The photon flux at a position of a sample was calculated as 3.9×10^8 (photons/second) by use of the SPECTRA code.
The spheroids prepared as mentioned above were irradiated with a monochromatic X-ray (energy: 33.0 key, 33.2 keV or 33.4 keV) for 30 minutes. After X-ray radiation, spheroids were incubated in a CO2 incubator at 37° C. for 3 days and thereafter, observed by a confocal microscope (visible light and fluorescent light). […]

[2] = test system: OVCAR8 tumor spheroid (hypoxic or normoxic); test: Destruction of hypoxic spheroid by monochromatic X-ray irradiation; assay type: cell-based, Human; details: then monochromatic X-ray
Protocol: The iodine atom-containing Hoechst compound (I-Hoechst) and spheroids were incubated (24 hours) in the same manner as in Test Example 3 to obtain spheroids having the Hoechst compound taken up therein. The spheroids were put in tubes and further incubated in a hypoxic (0% oxygen concentration) condition for further 18 hours. As a control, spheroids were incubated in a normal (not hypoxic) oxygen condition (20% oxygen concentration) in the same manner for 18 hours. After incubation in a hypoxic (or normoxic) condition, the spheroids were irradiated with monochromatic X-rays in the same manner as in Test Example 5. In the Test, whether spheroids are placed in a hypoxic condition was checked by inducing expression of a hypoxic marker, HIF-1α. Note that, HIF-1α is a kind of a hypoxia inducible factor and measurable by a commercially available kit.
Furthermore, spheroids (nanoparticles carrying an iodine atom-containing Hoechst compound-spheroid) prepared in Test Example 8 are irradiated with monochromatic X-rays under a hypoxic condition in the same manner as in Test Example 7. It is confirmed that hypoxic spheroids irradiated with the X-rays are destroyed.

[3] = test system: DNA double strand in OVCAR8 tumor spheroid; test: γH2AX assay of spheroids immediately after monochromatic X-ray irradiation; assay type: cell-based, Human
Protocol: For investigating the mechanism of how to destroy spheroids, spheroids were irradiated with a monochromatic X-ray for 30 minutes. Immediately after irradiation and before incubation, spheroids were subjected to γH2AX assay to confirm the state of a DNA double strand. In the γH2AX assay, if a double strand is cleaved, red fluorescence is emitted. The γH2AX assay was performed by use of a commercially available kit in accordance with the instructions attached thereto.

[4] = test system: ovarian cancer OVCAR8 cells; test: Cytotoxicity test by LDH (lactate dehydrogenase) method; assay type: cell-based, Human
Protocol: A Hoechst compound (normal compound containing no iodine atom) is generally considered to have low toxicity. The following experiment was carried out to confirm that iodine atom-containing Hoechst compounds have low toxicity. Iodine atom-containing Hoechst compounds (I-Hoechst, 3HCl) different in addition amount were each incubated with ovarian cancer OVCAR8 cells. Cytotoxicity was investigated by a commercially available kit in accordance with LDH (lactate dehydrogenase) method.
Furthermore, the safety of the nanoparticles carrying an iodine atom-containing Hoechst compound is confirmed in the same manner as in Test Example 6.

OVCAR8 tumor spheroid [5] = test: Uptake into tumor spheroid, confocal microscopy; assay type: cell-based, Human; details: 5 nmol/mL
Protocol: Human ovarian cancer cell OVCAR8 expressing green fluorescent protein (GFP) was used as a cancer cell. A tumor spheroid (hereinafter also referred to as “spheroid”) was formed from the cancer cell. Cancer cell OVCAR8 was cultured on RPMI1640 medium containing 10% inactivated FBS and 1% penicillin/streptomycin in a culture dish of 100 mm in diameter. For forming spheroids, […] of OVCAR8 cells were seeded in PrimeSurface96U culture plate (MS-9096U, Sumitomo Bakelite Co., Ltd). The OVCAR8 cells were cultured in a CO2 incubator at 37° C. for 7 days. Since the cells were not able to attach to a hydrophilic plate surface, the cells came together at the bottom of a well and formed three-dimensional spheroids at the bottom. In this manner, spheroids (estimated number of cells: approximately 100,000) of 500 μm in diameter were obtained.
Subsequently, an iodine atom-containing Hoechst compound (I-Hoechst-3HCl) (0.1 mg, 151.57 nmol) was dissolved in water (1.5 mL) to prepare a solution containing the iodine atom-containing Hoechst compound (amount of the Hoechst compound: 100 nmol/mL). […]
For the horizontal row, images in the column indicated by “GFP” are the observation results based on a fluorescence (green), whereas images in the column indicated by “I-Hoechst” are observation results based on staining (blue) with the Hoechst compound. […]

[6] = test system: Human ovarian cancer cell OVCAR8 expressing GFP; test: Uptake by cancer cell, confocal microscopy; assay type: cell-based; details: 50 nmol/mL, 24 hours, 37° C.
Protocol: Human ovarian cancer cell OVCAR8 expressing green fluorescent protein (GFP) was used as a cancer cell. Cancer cell OVCAR8 was cultured on RPMI1640 medium containing 10% inactivated FBS and 1% penicillin/streptomycin in a culture dish having a diameter of 100 mm. Furthermore, the iodine atom-containing Hoechst compound (I-Hoechst-3HCl) (0.1 mg, 151.57 nmol) was dissolved in water (0.15 mL) to prepare a solution (the amount of Hoechst compound: 1 μmol/mL) containing the iodine atom-containing Hoechst compound. The solution was added to the culture solution such that the amount of the Hoechst compound in the culture solution became 50 nmol/mL and incubated in a CO2 incubator at 37° C. for 24 hours. Thereafter, the culture medium was removed and the cells were washed. The cells were observed by a confocal microscope. Cell nuclei can be detected based on staining with a Hoechst compound (blue color emission) and expression of GFP (green fluorescence). […]
Nanoparticles (IH-BPMO) carrying an iodine atom-containing Hoechst (I-Hoechst) were added to a medium containing cancer cells and culture was performed for 24 hours in accordance with Test Example 8. Fluorescence was observed by a microscope.

With `CN1CCN(c2ccc3nc(-c4ccc5nc(-c6ccc(O)cc6)[nH]c5c4)[nH]c3c2)CC1` [Hoechst 33258, reference compound] the Spheroid destruction (OVCAR8 tumor spheroid [1]; any of the monochromatic X-rays (33.0, 33.2 or 33.4 keV)) was “spheroids were not destroyed”.

For `CN1CCN(c2ccc3nc(-c4ccc5nc(-c6ccc(O)c(I)c6)[nH]c5c4)[nH]c3c2)CC1` [Hoechst 33342 analog 2], the “Spheroid destruction in hypoxic condition” value ([2]; 0% oxygen 18 hours) was “effectively destroyed”, the “Spheroid destruction in normoxia condition” value ([2]; 20% oxygen 18 hours) was “effectively destroyed” and the “DNA double strand break (γH2AX red fluorescence)” value (shortened to “DNA double strand break”) ([3]; 33.0 keV, 30 minutes, immediately after irradiation) was “no DNA double strands were broken”. For the same compound, the “DNA double strand break” value ([3]; 33.2 keV, 30 minutes, immediately after irradiation) was “a DNA double strand was broken”, the “DNA double strand break” value ([3]; 33.4 keV, 30 minutes, immediately after irradiation) was “a DNA double strand was broken although the degree of double strand break is lower than the 33.2-keV monochromatic X-ray” and the “DNA double strand break” value ([3]; no irradiation with monochromatic X-ray) was “no DNA double strands were broken”. The Spheroid destruction (OVCAR8 tumor spheroid [1]; monochromatic X-ray 33.0 keV) was “spheroids were not destroyed”, the Spheroid destruction (OVCAR8 tumor spheroid [1]; monochromatic X-ray 33.2 keV) was “destroyed into pieces” and the Spheroid destruction (OVCAR8 tumor spheroid [1]; monochromatic X-ray 33.4 keV) was “spheroids were destroyed even though the degree of destruction was lower than the 33.2-keV monochromatic X-ray”.

For `CN1CCN(c2ccc3nc(-c4ccc5nc(-c6ccc(O)c(I)c6)[nH]c5c4)[nH]c3c2)CC1` [I-Hoechst-3HCl, Hoechst 33342 analog 2 trihydrochloride], the “Concentration at which no toxicity was shown (LDH method)” value [4] was ≤ 20 µM, the “Permeation into interior of spheroid” value (OVCAR8 tumor spheroid [5]; confocal microscope) was “reaches not only cells close to the surface of a spheroid but also cells located at the center of the spheroid” and the “Uptake and distribution in spheroids” value (OVCAR8 tumor spheroid [5]; incubation 1, 24, 96 hours) was “efficiently taken up by spheroids and uniformly distributed over the entire spheroids 24 hours later”. For the same compound, the “Uptake and localization in cancer cell” value [6] was “taken up within the cell, transported to the nucleus of the cell and localized in DNA”.

Reference: US20250186431A1, “PHARMACEUTICAL COMPOSITION FOR RADIOTHERAPY, AND METHOD FOR TREATING SOLID CANCER USING SAME” (Kyoto University, priority 2022, published 2025)
